This note sets out measurements from patent publication US20210330611A1, “THERAPY FOR NEUROLOGICAL DISEASES/DISORDERS” (priority 2020, published 2021).

Series [1] has as its system fibrin-induced microglia activation. Kind of series: Image-based assay of fibrin-induced microglia activation (HTS and dose response). To be noted: for pIC50 / inhibition at 10 µM / IC50: Rattus norvegicus, Microglia; for inhibition at 10 µM: read-out: Fibrin % inhibition. The format is cell-based, rat.
The test system of series [2] is LPS-induced microglia activation. Put plainly: Image-based assay of LPS-induced microglia activation (HTS and dose response). The format is cell-based, rat. The note with it: Rattus norvegicus, Microglia; for inhibition at 10 µM: read-out: LPS % inhibition.
For series [3], the system named is fibrin- and LPS-induced microglia activation. Kind of series: cells. The format is cell-based, rat. To be noted: for inhibition at 10 µM: Rattus norvegicus.
For series [4], the system named is primary rat microglia. The note with it: rat.
Series [5] concerns primary rat microglia. To be noted: rat. This is another data set of the same source.
Series [6] in a line: in vitro. The note with it: rat, Cell Toxicity IC50 (uM) [cFib assay].
Series [7] is described as follows: in vitro. The note with it: rat.
The mark [8] stands for this setting: read-out: Fibrin IC50 (uM) (Suppl. Table 7).
Where [9] appears, read: read-out: LPS IC50 (uM) (Suppl. Table 7).
[10] abbreviates: Microglia, read-out: Cherry-picked Hit (Suppl. Table 7).
The mark [11] stands for this setting: 48 h, Table 1, dose response 0.001-20 μM, triplicates, primary rat microglia, 48 h, read-out: Fibrin IC50.
Setting [12] is: dose response, fibrin-induced microglia activation, read-out: Fibrin IC50.
Where [13] appears, read: fibrin-induced microglia activation, dose response, read-out: Fibrin IC50 (uM) (Suppl. Table 7).
Where [14] appears, read: primary microglia HTS, fibrin stimulation, increased cell size (>800 μm^2) as marker of activation.
[15] abbreviates: 48 h, Table 1, dose response 0.001-20 μM, triplicates, primary rat microglia, 48 h, read-out: LPS IC50.
Setting [16] is: 48 h, primary microglia HTS, LPS stimulation, increased cell size (>800 μm^2) as marker of activation.
[17] abbreviates: LPS-induced microglia activation, dose response, read-out: LPS IC50 (uM) (Suppl. Table 7).
The mark [18] stands for this setting: dose response, LPS-induced microglia activation, read-out: LPS IC50.
Where [19] appears, read: HTS of 1907 compounds, quadrant by fibrin and LPS inhibition.
Where [20] appears, read: Microglia, HTS hit classification, read-out: Hit.
The mark [21] stands for this setting: hit classification in microglia HTS, read-out: Cherry-picked Hit (Suppl. Table 7).
Setting [22] is: quadrant by fibrin and LPS inhibition in HTS of 1907 compounds.

For orientation: IC50 means the point on the concentration scale where inhibition reaches its midpoint.

Molecules are shown by their SMILES. pIC50: −log10 of the molar value. Structures can show the parent of a compound that is named as a salt. Where two headings read alike, the source gives them in different places.
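For Fibrin % cell toxicity in this document: share of dead cells sized under 150 µm2 at 10 µM in fibrin-stimulated microglia HTS.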

Take `CCCSc1ccc2nc(NC(=O)OC)[nH]c2c1` [Albendazole, reference compound]: in series [1], the “Fibrin Selectivity” value turned out to be 2. The “Fibrin Selectivity (LOG10)” value in series [1] turned out to be 0.22. Further, the pIC50 was 5.40 in series [1] (48 h, read-out: Fibrin IC50); 5.22 in series [2] (48 h, read-out: LPS IC50); under 4.70 in the series “in vitro [7]”. For the same compound, the inhibition at 10 µM was 64% in series [1]; 16% in series [2] (48 h); over 50% in series [3] (setting [10]); over 50% in series [3] (Microglia, read-out: Hit). Further, the IC50 in series [1] (read-out: Fibrin IC50 (uM)) was 4 µM; in series [1] (setting [8]), 4 µM; in series [2] (read-out: LPS IC50 (uM)), 6 µM; in series [2] (setting [9]), 6 µM; in the series “in vitro [6]”, over 20 µM. The “Quadrant (FIG. 5b)” value in series [3] is on record as “Q3”. Besides, the “Fibrin % cell toxicity” value with primary rat microglia [4] worked out at 1%. Further, the “LPS % cell toxicity” value with primary rat microglia [5] amounted to 1%.
`Clc1ccc2c(c1)C(N1CCNCC1)=Nc1ccccc1O2` [Amoxapine, reference compound]: the inhibition at 10 µM was 58% in series [1]; 43% in series [2] (48 h); over 50% in series [3] (setting [10]); over 50% in series [3] (Microglia, read-out: Hit). Also, the “Quadrant (FIG. 5b)” value in series [3] is recorded as “Q3”. In the series on primary rat microglia [4], the “Fibrin % cell toxicity” value amounted to 0%. Further, the “LPS % cell toxicity” value in the series on primary rat microglia [5] came to 1%. The IC50 in “in vitro [6]” is over 20 µM. The pIC50 in the series “in vitro [7]” was under 4.70.
Take `C=C(CC)C(=O)c1ccc(OCC(=O)O)c(Cl)c1Cl` [Ethacrynic acid, reference compound]: the pIC50 (in series [1] (setting [11]); in series [1] (setting [12]); in series [2] (setting [15]); in series [2] (setting [18]); in the series “in vitro [7]”) was under 4.70 throughout. The IC50 (in series [1] (setting [13]); in series [2] (setting [17]); in the series “in vitro [6]” (cFib assay)) was over 20 µM each time. Moreover, the inhibition at 10 µM in series [1] (setting [14]) was 57%; in series [2] (setting [16]) it was 17%; in series [3] (setting [20]) it was over 50%; in series [3] (setting [21]) it was over 50%. The “Quadrant (FIG. 5b)” value is given as “Q3” in series [3] (setting [19]); “Q3” in series [3] (Table 1, screen at 10 μM); “Q3” in series [3] (setting [22]). In addition, in the series with primary rat microglia [4], the “Fibrin % cell toxicity” value worked out at 2%. The “LPS % cell toxicity” value in the series with primary rat microglia [5] came to 1%.
Turning to `CCN(CC)CCNc1ccc(CO)c2sc3ccccc3c(=O)c12` [Hycanthone, reference compound], the pIC50 in series [1] (setting [11]) was 6.00; in series [1] (Table 7, read-out: fib_IC50) it was 6.21; in series [1] (setting [12]), 6.00; in series [2] (setting [15]), 6.00; in series [2] (Table 7, read-out: LPS_IC50), 6.45; in series [2] (setting [18]) it was 6.00. Moreover, the pIC50 in the series “in vitro [7]” is 4.96. For the same compound, the results for the IC50 (in series [1] (setting [13]); in series [2] (setting [17]); in the series “in vitro [6]”) were 1 µM, 1 µM and over 20 µM, respectively. The inhibition at 10 µM in series [1] (setting [14]) is 103%; in series [2] (setting [16]) it was 71%; in series [3] (setting [20]) it was over 50%; in series [3] (setting [21]), over 50%. The “Quadrant (FIG. 5b)” value in series [3] (setting [19]) is on record as “Q2”; in series [3] (Table 1, screen at 10 μM), “Q2”; in series [3] (setting [22]), “Q2”. Moreover, in series [3] (Table 7, fib = fibrin, LPS, tox = toxicity), the Activity entry was “fib/LPS”. The “Fibrin % cell toxicity” value in the series on primary rat microglia [4] was found to be 2%. The “LPS % cell toxicity” value with primary rat microglia [5] stood at 2%.
Take `Cc1cccc(C(=O)O)c1O` [Hydroxytoluic acid, reference compound]: the pIC50 is 4.70 in series [1] (setting [11]); 4.70 in series [1] (setting [12]); under 4.70 in series [2] (setting [15]); under 4.70 in series [2] (setting [18]); under 4.70 in “in vitro [7]”. Besides, the IC50 was 20 µM in series [1] (setting [13]), over 20 µM in series [2] (setting [17]) and over 20 µM in “in vitro [6]”. The inhibition at 10 µM in series [1] (setting [14]) is 69%; in series [2] (setting [16]), 33%; in series [3] (setting [20]), over 50%; in series [3] (setting [21]), over 50%. In addition, the “Quadrant (FIG. 5b)” value in series [3] (setting [19]) was “Q3”; in series [3] (Table 1, screen at 10 μM), “Q3”; in series [3] (setting [22]) it was “Q3”. In addition, the “Fibrin % cell toxicity” value in the series on primary rat microglia [4] came to 1%. Moreover, the “LPS % cell toxicity” value with primary rat microglia [5] was 0%.
Regarding `C[C@@H](O)[C@H]1C(=O)N2C(C(=O)O)=C(SCCN=CN)C[C@H]12` [Imipenem, reference compound], the pIC50 in series [1] (48 h, read-out: Fibrin IC50) was under 4.70; in series [2] (48 h, read-out: LPS IC50), under 4.70; in “in vitro [7]” it was under 4.70. Besides, the IC50 (in series [1] (read-out: Fibrin IC50 (uM)); in series [1] (setting [8]); in series [2] (read-out: LPS IC50 (uM)); in series [2] (setting [9]); in the series “in vitro [6]”) was over 20 µM each time. In addition, the “Quadrant (FIG. 5b)” value in series [3] was “Q3”. For the same compound, the inhibition at 10 µM was over 50% in series [3] (setting [10]) and over 50% in series [3] (Microglia, read-out: Hit). For the same compound, in the series with primary rat microglia [4], the “Fibrin % cell toxicity” value came to 1%. Moreover, the “LPS % cell toxicity” value with primary rat microglia [5] was 0%.
As to `COC(=O)Nc1nc2ccc(C(=O)c3ccccc3)cc2[nH]1` [Mebendazole, reference compound], in series [1], the “Fibrin Selectivity” value was found to be 31. In addition, the “Fibrin Selectivity (LOG10)” value in series [1] was 1.49. The pIC50 was 6.70 in series [1] (setting [11]); 6.70 in series [1] (setting [12]); 5.22 in series [2] (setting [15]); 5.22 in series [2] (setting [18]); under 4.70 in the series “in vitro [7]”. The IC50 in series [1] (Table 3, read-out: Fibrin IC50 (uM) (Suppl. Table 7)) was 0.2 µM; in series [1] (setting [13]) it was 0.2 µM; in series [2] (setting [17]), 6 µM; in series [2] (Table 3, read-out: LPS IC50 (uM) (Suppl. Table 7)), 6 µM; in “in vitro [6]”, over 20 µM. For the same compound, the inhibition at 10 µM in series [1] (setting [14]) is 57%; in series [2] (setting [16]), 72%; in series [3] (Microglia, Table 3, read-out: Cherry-picked Hit (Suppl. Table 7)), over 50%; in series [3] (setting [20]), over 50%. Also, the “Quadrant (FIG. 5b)” value in series [3] (setting [19]) is on record as “Q2”; in series [3] (Table 1, screen at 10 μM), “Q2”; in series [3] (Table 3, screen at 10 μM), “Q2”; in series [3] (setting [22]), “Q2”. The “Fibrin % cell toxicity” value with primary rat microglia [4] is 1%. For the same compound, the “LPS % cell toxicity” value with primary rat microglia [5] is 2%.
Consider `COc1ccc(O)cc1` [Mequinol, reference compound], for which the pIC50 in series [1] (48 h, read-out: Fibrin IC50) was under 4.70; in series [2] (48 h, read-out: LPS IC50), under 4.70; in the series “in vitro [7]” it was under 4.70. Besides, the inhibition at 10 µM is 98% in series [1]; 76% in series [2] (48 h); over 50% in series [3] (setting [10]); over 50% in series [3] (Microglia, read-out: Hit). The IC50 (in series [1] (read-out: Fibrin IC50 (uM)); in series [1] (setting [8]); in series [2] (read-out: LPS IC50 (uM)); in series [2] (setting [9]); in the series “in vitro [6]”) was over 20 µM each time. Moreover, in series [3], the “Quadrant (FIG. 5b)” value is given as “Q2”. The “Fibrin % cell toxicity” value in the series on primary rat microglia [4] was determined as 2%. Further, the “LPS % cell toxicity” value with primary rat microglia [5] was found to be 1%.
Regarding `COC(=O)C(c1ccccc1)C1CCCCN1` (stereo not drawn) [Methylphenidate hydrochloride, reference compound], the pIC50 (in series [1] (setting [11]); in series [1] (setting [12]); in series [2] (setting [15]); in series [2] (setting [18]); in “in vitro [7]”) was under 4.70 in each case. The half-inhibitory concentration (IC50) (in series [1] (setting [13]); in series [2] (setting [17]); in the series “in vitro [6]” (cFib assay)) was over 20 µM in each case. For the same compound, the inhibition at 10 µM in series [1] (setting [14]) was 81%; in series [2] (setting [16]), 75%; in series [3] (setting [20]), over 50%; in series [3] (setting [21]), over 50%. Also, the “Quadrant (FIG. 5b)” value in series [3] (setting [19]) is recorded as “Q2”; in series [3] (Table 1, screen at 10 μM), “Q2”; in series [3] (setting [22]), “Q2”. Further, the “Fibrin % cell toxicity” value in the series on primary rat microglia [4] is on record as 2%. Moreover, the “LPS % cell toxicity” value in the series on primary rat microglia [5] was found to be 1%.
For `Clc1ccc(COC(Cn2ccnc2)c2ccc(Cl)cc2Cl)c(Cl)c1` (stereo not drawn) [Miconazole nitrate, reference compound], the inhibition at 10 µM is 53% in series [1]; 23% in series [2] (48 h); over 50% in series [3] (setting [10]); over 50% in series [3] (Microglia, read-out: Hit). The “Quadrant (FIG. 5b)” value in series [3] was “Q3”. In the series on primary rat microglia [4], the “Fibrin % cell toxicity” value is on record as 1%. In addition, in the series on primary rat microglia [5], the “LPS % cell toxicity” value is given as 0%. In “in vitro [6]”, this compound gave an IC50 of over 20 µM. The compound further had a pIC50 in “in vitro [7]” of under 4.70.
